Data reported in PubChem BioAssay (NCI).
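Compound exposure: 48 hours, 5 concentrations, 96-well plates. Abbreviation: GI50, concentration required for 50% inhibition of growth. Definition used: TGI = concentration required for complete inhibition of growth.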

How the values were obtained:
Assay in all cases: growth of human tumour cells (NCI), 48 h
[1] = tested on: NCI-H226 lung
[2] = tested on: NCI-H23 lung
[3] = tested on: NCI-H460 lung
[4] = tested on: NCI-H522 lung
[5] = tested on: NCI/ADR-RES ovarian
[6] = tested on: OVCAR-3 ovarian
[7] = tested on: OVCAR-4 ovarian
[8] = tested on: OVCAR-5 ovarian
[9] = tested on: OVCAR-8 ovarian
[10] = tested on: PC-3 prostate
[11] = tested on: RPMI-8226 leukemia
[12] = tested on: RXF 393 renal
[13] = tested on: SF-268 CNS
[14] = tested on: SF-295 CNS
[15] = tested on: SF-539 CNS
[16] = tested on: SK-MEL-2 melanoma
[17] = tested on: SK-MEL-28 melanoma
[18] = tested on: SK-MEL-5 melanoma
[19] = tested on: SK-OV-3 ovarian
[20] = tested on: SN12C renal
[21] = tested on: SNB-19 CNS
[22] = tested on: SNB-75 CNS
[23] = tested on: SR leukemia
[24] = tested on: SW-620 colon
[25] = tested on: T-47D breast
[26] = tested on: TK-10 renal
[27] = tested on: U251 CNS
[28] = tested on: UACC-257 melanoma
[29] = tested on: UACC-62 melanoma
[30] = tested on: UO-31 renal

`Cc1ccc(C2CC(c3ccc(NC(=O)Nc4ccccc4)cc3)=NN2c2ccc(S(C)(=O)=O)cc2)cc1` (centres undefined) gave a TGI [1] of 7.04 µM, a GI50 [2] of 2.48 µM and a TGI [2] of 8.48 µM. For the same molecule, the GI50 [3] was 2.2 µM, the TGI [3] was 5.6 µM and the GI50 [4] was 2.24 µM. For the same molecule, the TGI [4] was 10.6 µM, the GI50 [5] was 2.5 µM and the TGI [5] was 7.74 µM. The GI50 [6] was 1.93 µM, the TGI [6] was 4.47 µM and the GI50 [7] was 2.84 µM. It also gave a TGI [7] of 11.3 µM, a GI50 [8] of 2.27 µM and a TGI [8] of 6.78 µM. For the same molecule, the GI50 [9] was 4.83 µM, the TGI [9] was 21.7 µM and the GI50 [10] was 2.82 µM. For the same molecule, the TGI [10] was 11.8 µM, the GI50 [11] was 2.48 µM and the TGI [11] was 7.98 µM. The GI50 [12] was 1.84 µM, the TGI [12] was 5.08 µM and the GI50 [13] was 3.82 µM. The TGI [13] was 15.5 µM, the GI50 [14] was 2.58 µM and the TGI [14] was 8.35 µM. The GI50 [15] was 2.28 µM, the TGI [15] was 6.05 µM and the GI50 [16] was 7.39 µM. It also gave a TGI [16] of 22.3 µM, a GI50 [17] of 3.39 µM and a TGI [17] of 11.9 µM. It also gave a GI50 [18] of 2.34 µM, a TGI [18] of 6.28 µM and a GI50 [19] of 7.96 µM. The TGI [19] was 21.2 µM, the GI50 [20] was 1.69 µM and the TGI [20] was 3.16 µM. It also gave a GI50 [21] of 5.53 µM, a TGI [21] of 18.4 µM and a GI50 [22] of 4.44 µM. For the same molecule, the TGI [22] was 19.3 µM, the GI50 [23] was 2.59 µM and the TGI [23] was 10.7 µM. The GI50 [24] was 2.6 µM, the TGI [24] was 12.1 µM and the GI50 [25] was 3.02 µM. It also gave a TGI [25] of 11.1 µM, a GI50 [26] of 4.52 µM and a TGI [26] of 17.1 µM. The GI50 [27] was 4.36 µM, the TGI [27] was 17.1 µM and the GI50 [28] was 6.15 µM. The TGI [28] was 22.6 µM, the GI50 [29] was 3.19 µM and the TGI [29] was 13.4 µM. The GI50 [30] was 2.58 µM and the TGI [30] was 11.2 µM.
